According to patent US12303513B2, “Methods and compositions to treat cancer” (Children's Hospital Medical Center, priority 2016, dated 2025):
“Also recorded” adds a separate entry of the source.

How the values were obtained:
[1] = system: MSTO-211H mesothelioma cells; assay: Growth inhibition by iMDK combined with ABT263 (FIG. 5); type: cell-based, human; settings: 48 hours, ABT263 plus iMDK versus each drug alone
Experimental: FIG. 5. ABT263 enhanced iMDK-mediated suppression of cell proliferation in MSTO-211H mesothelioma cells. […] Cell lines: The human malignant pulmonary mesothelioma cells MSTO-211H, H2452, H2052, H28 MESO-1 and MESO-4 were grown in RPMI 1640 supplemented with 10% heat-inactivated fetal bovine serum. The human pulmonary adenocarcinoma cells: H441 and the human embryonic kidney cells: HEK293 were grown in high glucose Dulbecco's modified Eagle supplemented with 10% heat-inactivated fetal bovine serum. All cell lines were cultured in 5% CO2 at 37° C.

293 cells = assay: Cell viability, Wright-Giemsa staining (FIG. 18C), 293 cells; type: cell-based, human; settings: 10 μM, 3 days after treatment
[2] = system: MSTO211H mesothelioma cells; assay: Cell growth, cell count with Countess II (FIGS. 14, 15); type: cell-based, human; settings: 48 hours, dose-dependent, vs DMSO control
Experimental: FIG. 14. iMDK (#3) and its derivatives (A6, D9 and E6) inhibits growth of MSTO211H mesothelioma cells. MSTO211H mesothelioma cells were treated with iMDK (#3) or iMDK derivatives (A6, D9 or E6) at indicated different final concentrations.
FIG. 15. iMDK (#3) and its derivatives (F5, F6 and F7) inhibits growth of MSTO211H mesothelioma cells. MSTO211H mesothelioma cells were treated with iMDK (#3) or iMDK derivatives (F5, F6 or F7) at indicated different final concentrations.
(§1) Cell lines: The human malignant pulmonary mesothelioma cells MSTO-211H, H2452, H2052, H28 MESO-1 and MESO-4 were grown in RPMI 1640 supplemented with 10% heat-inactivated fetal bovine serum. The human pulmonary adenocarcinoma cells: H441 and the human embryonic kidney cells: HEK293 were grown in high glucose Dulbecco's modified Eagle supplemented with 10% heat-inactivated fetal bovine serum. All cell lines were cultured in 5% CO2 at 37° C.

H441 cells = assay: Cell viability / toxicity in H441 cells (FIGS. 18C, 19); type: cell-based, human; settings: 10 μM, 3 days after treatment (not shown)
endogenous midkine = assay: Endogenous midkine expression in H441 cells by western blotting (FIG. 18A); type: cell-based, human; settings: H441 lung adenocarcinoma cells, 10 μM, 24 hours
Experimental: FIG. 18. […] A. H441 lung adenocarcinoma cells were treated with iMDK and related compounds at a final concentration of 10 μM. Twenty-four hours after treatment, cells were harvest and protein expression was assessed using western blotting assay. […] B. Shown is structures of compounds #2 (also known as F6). #3 (also known as iMDK), #5, #7, and #8. C. […] DMSO was used as control.
as §1

MESO4 mesothelioma cells = assay: Cell growth, cell count with Countess II (FIGS. 16, 17); type: cell-based, human; settings: MESO4, 48 hours, dose-dependent, vs DMSO control
Experimental: FIG. 16. iMDK (#3) and its derivatives (A6, D9 and E6) inhibits growth of MESO4 mesothelioma cells. MESO4 mesothelioma cells were treated with iMDK (#3) or iMDK derivatives (A6, D9 or E6) at indicated different final concentrations.
FIG. 17. iMDK (#3) and its derivatives (F5, F6 and F7) inhibits growth of […] mesothelioma cells. MESO4 mesothelioma cells were treated with iMDK (#3) or iMDK derivatives (F5, F6 or F7) at indicated different final concentrations.
as §1

midkine protein = assay: Inhibition of midkine protein expression (Table, FIGS. 7-12); type: cell-based; settings: for Activity on protein expression: 1 uM of compound
H28 mesothelioma cells = assay: Cell viability, trypan blue exclusion assay (FIG. 2), H28; type: cell-based, human; settings: H28, 48 hours of treatment
Experimental: as §1, with “FIG. 2. iMDK suppressed cell viability of MDK expressing malignant pulmonary mesothelioma cells. […] Cell viability was assessed by trypan blue exclusion assay. Statistical significance was defined as p<0.01 (*). Cell” for “Cell”

PI3 kinase/Akt pathway = settings: previously reported; cited from earlier work
H2052 mesothelioma cells = assay: Cell viability, trypan blue exclusion assay (FIG. 2), H2052; type: cell-based, human; settings: H2052, 48 hours of treatment
Experimental: as §1, with “FIG. 2. iMDK suppressed cell viability of MDK expressing malignant pulmonary mesothelioma cells. […] Cell viability was assessed by trypan blue exclusion assay. Statistical significance was defined as p<0.01 (*). Cell” for “Cell”

MSTO-211H cells [3] = assay: Apoptosis by TUNEL staining (FIG. 4); type: cell-based, human; settings: 48 h treatment, dose dependent
Experimental: Cells were treated for 48 h at a indicated concentration of iMDK then TUNEL staining was performed to detect apoptosis using the DeadEnd colorimetric TUNEL system (Promega, Madison, WI) according to the manufacturer's protocol. Statistical significance was defined as p<0.01 (*). Cell lines: The human malignant pulmonary mesothelioma cells MSTO-211H, H2452, H2052, H28 MESO-1 and MESO-4 were grown in RPMI 1640 supplemented with 10% heat-inactivated fetal bovine serum. The human pulmonary adenocarcinoma cells: H441 and the human embryonic kidney cells: HEK293 were grown in high glucose Dulbecco's modified Eagle supplemented with 10% heat-inactivated fetal bovine serum. All cell lines were cultured in 5% CO2 at 37° C.

[4] = system: MDK expressing non-small cell lung cancer cells; settings: previously reported; cited from earlier work
MSTO-211H cells [5] = assay: Colony formation, crystal violet staining (FIG. 3); type: cell-based, human; settings: fourteen days after treatment
Experimental: as §1, with “Colony formation of MSTO-211H cells treated with iMDK. Fourteen days after the treatment, cells were fixed and stained with crystal violet. Representative images of experiments performed in triplicate are shown. Cell” for “Cell”

[6] = system: MSTO-211H mesothelioma cells; assay: Cell viability, trypan blue exclusion assay (FIG. 2), MSTO-211H; type: cell-based, human; settings: 48 hours of treatment
Experimental: as §1, with “FIG. 2. iMDK suppressed cell viability of MDK expressing malignant pulmonary mesothelioma cells. […] Cell viability was assessed by trypan blue exclusion assay. Statistical significance was defined as p<0.01 (*). Cell” for “Cell”

H2452 mesothelioma cells = assay: Cell viability, trypan blue exclusion assay (FIG. 2), H2452; type: cell-based, human; settings: H2452, 48 hours of treatment
Experimental: as §1, with “FIG. 2. iMDK suppressed cell viability of MDK expressing malignant pulmonary mesothelioma cells. […] Cell viability was assessed by trypan blue exclusion assay. Statistical significance was defined as p<0.01 (*). Cell” for “Cell”

[7] = system: tumors derived from MSTO-211H cells; assay: Malignant pleural mesothelioma xenograft mouse model (FIG. 6); type: in vivo; settings: i.p., compared to control (DMSO)
From the text: Eight mice were used in each group. Tumor growth is expressed as mean tumor volume; bars represent SD. Statistical significance was defined as p<0.05 (#)

normal cells = settings: previously reported; cited from earlier work
[8] = system: non-small cell lung cancer expressing MDK; settings: previously reported; cited from earlier work

| Compound | growth of cells (number of cells) [2] | growth of cells (number of cells) (MESO4 mesothelioma cells) | Concentration to inhibit midkine protein expression (midkine protein) [µM] | Activity on protein expression (midkine protein) | also measured |
| --- | --- | --- | --- | --- | --- |
| CC1(C)CCC(c2ccc(Cl)cc2)=C(CN2CCN(c3ccc(C(=O)NS(=O)(=O)c4ccc(N[C@H](CCN5CCOCC5)CSc5ccccc5)c(S(=O)(=O)C(F)(F)F)c4)cc3)CC2)C1 [ABT-263] |  |  |  |  | growth inhibition in combination with iMDK [1]: more effective than each drug alone; growth inhibition in combination with iMDK ([1]; listed as ABT263): enhanced growth inhibition |
| O=c1oc2ccccc2cc1-c1cn2cc(Cc3ccc(Cl)cc3)sc2n1 [Compound 1] | significantly inhibited the growth | significantly inhibited the growth | 1 | inhibits protein expression | cell viability (293 cells): inhibited cell viability; cell viability (H441 cells): inhibited cell viability; endogenous midkine expression (endogenous midkine): suppressed endogenous midkine expression |
| O=c1oc2ccccc2cc1-c1cn2cc(Cc3ccccc3)sc2n1 [Compound 5] | significantly inhibited the growth | significantly inhibited the growth | 10 | inhibits protein expression |  |
| COc1ccc(Cc2cn3cc(-c4cc5ccccc5oc4=O)nc3s2)cc1 [Compound 6] | significantly inhibited the growth | significantly inhibited the growth | 1 | inhibits protein expression |  |
| O=c1oc2ccccc2cc1-c1cn2cc(Cc3cccc(C(F)(F)F)c3)sc2n1 [Compound 7] |  |  | 0.1 |  |  |
| Cc1ccc(Cc2cn3cc(-c4cc5ccccc5oc4=O)nc3s2)cc1 [Compound 8] | significantly inhibited the growth | significantly inhibited the growth | 1 | inhibits protein expression |  |
| O=c1oc2ccccc2cc1-c1cn2cc(Cc3ccc(C(F)(F)F)cc3)sc2n1 [Compound 9] | significantly inhibited the growth | significantly inhibited the growth | 1 | inhibits protein expression |  |
| COc1ccc(-c2cn3cc(Cc4ccc(F)cc4)sc3n2)cc1 [Compound 10] | significantly inhibited the growth | significantly inhibited the growth | 10 | inhibits protein expression |  |
| O=c1oc2ccccc2cc1-c1cn2cc(Cc3ccc(F)cc3)sc2n1 [iMDK, 3-[2-(4-fluorobenzyl)imidazo[2,1-b][1,3]thiazol-6-yl]-2H-chromen-2-one] | significantly inhibited the growth | significantly inhibited the growth | 0.1 |  | growth inhibition (cell viability) (H28 mesothelioma cells): Dose-dependent growth inhibition; PI3 kinase/Akt pathway (PI3 kinase/Akt pathway): inhibits; cell viability (293 cells): inhibited cell viability; growth inhibition (cell viability) (H2052 mesothelioma cells): Dose-dependent growth inhibition; apoptosis (TUNEL positive cells) (MSTO-211H cells [3]): induced apoptosis; also recorded: significantly increased; apoptosis [4]: induces apoptosis; cell viability (H441 cells): inhibited cell viability; colony formation (MSTO-211H cells [5]): suppressed colony formation; growth inhibition (cell viability) [6]: Dose-dependent growth inhibition; endogenous midkine expression (endogenous midkine): suppressed endogenous midkine expression; growth inhibition (cell viability) (H2452 mesothelioma cells): Dose-dependent growth inhibition; Volume of the tumors ([7]; iMDK 5 mg/kg): significantly reduced; Volume of the tumors ([7]; iMDK 9 mg/kg): significantly reduced; harm to normal cells (normal cells): without harming; suppression of non-small cell lung cancer expressing MDK [8]: suppresses |
